Among the data in US20240317744A1, “Bicyclic Ureas As Kinase Inhibitors” (Incyte Corporation, priority 2023, published 2024) are IC50 values, retold here.

Test [1] deals with T1, catalytic domain (JH1, amino acids 826-1132) of human JAK2 (Homo sapiens, UniProt O60674).
T1 construct: catalytic domain (JH1, amino acids 826-1132) of human JAK2; FLAG (N); biotin (biotinylated); purchased Carna Biosciences 08-445-20N; host or cells: baculovirus expression system
The test is described as follows: JAK2 LanthaScreen JH1 Binding Assay. As to conditions: JAK2 JH1 1.5 nM, 50 nM tracer, 2 hours at 25° C.; read-out: JH1 BIND. In outline:
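FLAG-tagged, biotinylated JAK2 JH1 (aa 826-1132, baculovirus-expressed; 1.5 nM) incubated 2 h at 25° C with compounds, 50 nM fluorescent tracer and 0.5 nM Streptavidin-Tb in Tris pH 7.5 buffer with MgCl2, Brij-35, BSA, EGTA, glycerol, DTT. Nonspecific binding defined with 2 mM ATP; TR-FRET IC50 from four-parameter fit.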
Background: TR-FRET usually uses a lanthanide donor and a delayed reading to cut background.

Test [2] concerns the target T2, pseudo-kinase domain (JH2, amino-acids 536-812) of human Wild Type JAK2 (Homo sapiens, UniProt O60674, F794H/W659A/W777A).
T2 construct: pseudo-kinase domain (JH2, amino-acids 536-812 with 3 surface mutations W659A, W777A, F794H); His (C); purchased BPS Bioscience 79463; host or cells: baculovirus expression system
The test is described as follows: JAK2 LanthaScreen JH2-WT Binding Assay. As to conditions: JAK2 JH2-WT 0.145 nM, 50 nM tracer, 1 hour at 25° C.; read-out: JH2 BIND WT. In outline: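 Biotinylated His-Avi-tagged JAK2 JH2 (0.145 nM), baculovirus-expressed, incubated with compounds, 50 nM fluorescent JH2 tracer and 0.25 nM streptavidin-Tb, 1 h at 25° C in pH 7.5 Tris buffer with MgCl2 and DTT. Non-specific binding defined with 2 mM ATP. TR-FRET read; IC50 from four-parameter fit.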

Test [3] concerns the target T3, pseudo-kinase domain (JH2, amino-acids 536-812) of human V617F mutant JAK2 (Homo sapiens, UniProt O60674, F794H/V617F/W659A/W777A).
T3 construct: pseudo-kinase domain (JH2, amino-acids 536-812 with 3 surface mutations W659A, W777A, F794H); His (C); purchased BPS Bioscience 79498; host or cells: baculovirus expression system
The test is described as follows: JAK2 LanthaScreen JH2-V617F Binding Assay. As to conditions: JAK2 JH2-V617F 0.26 nM, 50 nM tracer, 1 hour at 25° C.; read-out: JH2 BIND V617F. The method, boiled down:
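Competition of compounds with a fluorescent tracer (50 nM) for the biotinylated domain (0.26 nM), detected via streptavidin-Tb (0.25 nM) after 1 h at 25° C in pH 7.5 Tris buffer containing glycerol, BSA and Brij-35. ATP at 2 mM gave background. IC50 by four-parameter fit.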

The target of test [4] is catalytic domain (JH1, amino acids 808-1132) of human JAK2 (Homo sapiens, UniProt O60674). The test is described as follows: JAK2 HTRF Enzyme Activity Assay. Format: biochemical. As to conditions: ATP 30 µM, 60 minutes at 25° C.; read-out: V617F ENZ 30 UM.
catalytic domain (JH1, amino acids 808-1132) of human JAK2, sequence (O60674 808-1132 limits assumed): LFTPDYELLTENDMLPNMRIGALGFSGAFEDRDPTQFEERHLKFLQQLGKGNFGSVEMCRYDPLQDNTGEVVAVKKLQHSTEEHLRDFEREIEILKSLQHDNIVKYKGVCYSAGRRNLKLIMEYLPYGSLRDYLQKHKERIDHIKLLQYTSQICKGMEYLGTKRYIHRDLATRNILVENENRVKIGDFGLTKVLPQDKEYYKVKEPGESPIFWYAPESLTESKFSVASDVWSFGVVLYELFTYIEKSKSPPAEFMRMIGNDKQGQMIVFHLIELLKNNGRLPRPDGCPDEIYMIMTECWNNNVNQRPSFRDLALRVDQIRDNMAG

T2 sequence (O60674 536-812 W659A/W777A/F794H): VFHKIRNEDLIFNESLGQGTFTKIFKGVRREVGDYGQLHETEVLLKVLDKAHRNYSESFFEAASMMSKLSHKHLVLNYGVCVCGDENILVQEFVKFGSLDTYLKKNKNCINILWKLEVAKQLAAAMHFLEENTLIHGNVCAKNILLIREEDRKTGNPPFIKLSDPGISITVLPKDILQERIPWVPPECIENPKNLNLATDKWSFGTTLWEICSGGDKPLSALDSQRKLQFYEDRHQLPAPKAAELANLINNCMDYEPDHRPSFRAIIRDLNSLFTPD
T3 sequence (O60674 536-812 V617F/W659A/W777A/F794H): as the sequence (O60674 536-812 W659A/W777A/F794H) above, with V82F counted along it
T1 sequence (O60674 826-1132): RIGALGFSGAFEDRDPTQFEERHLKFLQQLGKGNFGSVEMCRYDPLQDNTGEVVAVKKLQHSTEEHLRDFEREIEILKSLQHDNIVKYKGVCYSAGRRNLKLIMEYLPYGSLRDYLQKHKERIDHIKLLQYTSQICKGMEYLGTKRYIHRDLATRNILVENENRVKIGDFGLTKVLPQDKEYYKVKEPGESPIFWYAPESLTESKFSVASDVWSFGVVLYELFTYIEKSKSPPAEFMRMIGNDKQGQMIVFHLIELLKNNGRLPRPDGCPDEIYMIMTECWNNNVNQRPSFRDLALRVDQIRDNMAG

With `[2H]C([2H])([2H])n1c(=O)n([C@@H]2CC[C@@H](NC(=O)OC)C2)c2cc(Nc3ccc4c(n3)c(-c3cnn(C(F)(F)F)c3)cn4CCOC)ncc21` [Example 88, Methyl ((1R,3R)-3-(6-((1-(2-methoxyethyl)-3-(1-(trifluoromethyl)-1H-pyrazol-4-yl)-1H-pyrrolo[3,2-b]pyridin-5-yl)amino)-3-(methyl-d3)-2-oxo-2,3-dihydro-1H-imidazo[4,5-c]pyridin-1-yl)cyclopentyl)carbamate], the IC50 in test [1] is over 1000 nM; in test [2] it was at most 10 nM; in test [3], at most 10 nM; in test [4] it was over 1000 nM.
`[2H]C([2H])([2H])n1c(=O)n([C@@H]2CC[C@@H](NC(=O)OC)C2)c2cc(Nc3ccc4cc(NC5CCC(F)(F)C5)cc(C(F)(F)F)c4n3)ncc21` (stereo partly drawn) [Example 18, Methyl ((1R,3R)-3-(6-((6-((3,3-difluorocyclopentyl)amino)-8-(trifluoromethyl)quinolin-2-yl)amino)-3-(methyl-d3)-2-oxo-2,3-dihydro-1H-imidazo[4,5-c]pyridin-1-yl)cyclopentyl)carbamate]: the IC50 was over 1000 nM in test [1], at most 10 nM in test [2], at most 10 nM in test [3] and over 1000 nM in test [4].
For `[2H]C([2H])([2H])n1c(=O)n([C@@H]2CC[C@@H](NC(=O)OC)C2)c2cc(Nc3cc(C4CCN(C)CC4)cc(-c4ncc(C(F)(F)F)s4)n3)ncc21` [Example 157, Methyl ((1R,3R)-3-(3-(methyl-d3)-6-((4-(1-methylpiperidin-4-yl)-6-(5-(trifluoromethyl)thiazol-2-yl)pyridin-2-yl)amino)-2-oxo-2,3-dihydro-1H-imidazo[4,5-c]pyridin-1-yl)cyclopentyl)carbamate], the IC50 is over 1000 nM in test [1], at most 10 nM in test [2], at most 10 nM in test [3] and over 1000 nM in test [4].
Turning to `COC(=O)N[C@@H]1CC[C@@H](n2c(=O)n(C)c3cnc(Nc4ccc(F)c(-c5ccc(OC(F)(F)F)cc5)n4)cc32)C1` [Example 73, Methyl ((1R,3R)-3-(6-((5-fluoro-6-(4-(trifluoromethoxy)phenyl)pyridin-2-yl)amino)-3-methyl-2-oxo-2,3-dihydro-1H-imidazo[4,5-c]pyridin-1-yl)cyclopentyl)carbamate], the IC50 was over 1000 nM in test [1], 10 to 100 nM in test [2], 10 to 100 nM in test [3] and over 1000 nM in test [4].
On to `COC(=O)N[C@@H]1CC[C@@H](n2c(=O)n(C)c3cnc(Nc4cc(NC(=O)OC5CCC5)cc(C5CCOCC5)c4)cc32)C1` [Example 44, Methyl ((1R,3R)-3-(6-((3-((cyclobutoxycarbonyl)amino)-5-(tetrahydro-2H-pyran-4-yl)phenyl)amino)-3-methyl-2-oxo-2,3-dihydro-1H-imidazo[4,5-c]pyridin-1-yl)cyclopentyl)carbamate], for which the IC50 in test [1], in test [2], in test [3] and in test [4] was over 1000 nM each time.
For the compound `COC(=O)N[C@@H]1CC[C@@H](n2c(=O)n(C)c3cnc(Nc4ccc5ncc(-c6cncn6C)n5n4)cc32)C1` [Example 38, Methyl ((1R,3R)-3-(3-methyl-6-((3-(1-methyl-1H-imidazol-5-yl)imidazo[1,2-b]pyridazin-6-yl)amino)-2-oxo-2,3-dihydro-1H-imidazo[4,5-c]pyridin-1-yl)cyclopentyl)carbamate], the IC50 in test [1] was over 1000 nM; in test [2], at most 10 nM; in test [3], 10 to 100 nM; in test [4] it was over 1000 nM.
With `[2H]C([2H])([2H])n1c(=O)n([C@@H]2CC[C@@H](NC(=O)OC)C2)c2cc(Nc3cc(C(=O)N4CCOCC4)c4cccc(C(F)(F)F)c4n3)ncc21` [Example 52, Methyl ((1R,3R)-3-(3-(methyl-d3)-6-((4-(morpholine-4-carbonyl)-8-(trifluoromethyl)quinolin-2-yl)amino)-2-oxo-2,3-dihydro-1H-imidazo[4,5-c]pyridin-1-yl)cyclopentyl)carbamate], the IC50 was 500 to 1000 nM in test [1], at most 10 nM in test [2], at most 10 nM in test [3] and 500 to 1000 nM in test [4].
In the case of `COC(=O)N[C@@H]1CC[C@@H](n2c(=O)n(C)c3cnc(Nc4ccn5ncc(-c6cnn(C)c6)c5n4)cc32)C1` [Example 36, Methyl ((1R,3R)-3-(3-methyl-6-((3-(1-methyl-1H-pyrazol-4-yl)pyrazolo[1,5-a]pyrimidin-5-yl)amino)-2-oxo-2,3-dihydro-1H-imidazo[4,5-c]pyridin-1-yl)cyclopentyl)carbamate], the IC50 in test [1] was over 1000 nM; in test [2], at most 10 nM; in test [3], 10 to 100 nM; in test [4] it was over 1000 nM.
As to `COC(=O)N[C@@H]1CC[C@@H](n2c(=O)n(C)c3cnc(Nc4cc(C)nc(N5CCC(F)(F)C5)n4)cc32)C1` [Example 84, Methyl ((1R,3R)-3-(6-((2-(3,3-difluoropyrrolidin-1-yl)-6-methylpyrimidin-4-yl)amino)-3-methyl-2-oxo-2,3-dihydro-1H-imidazo[4,5-c]pyridin-1-yl)cyclopentyl)carbamate], the IC50 in test [1] is over 1000 nM; in test [2], at most 10 nM; in test [3], at most 10 nM; in test [4], over 1000 nM.
As to `[2H]C([2H])([2H])n1c(=O)n([C@@H]2CC[C@@H](NC(=O)OC)C2)c2cc(Nc3cccc(-n4cc(C(F)(F)F)cn4)n3)ncc21` [Example 108, Methyl ((1R,3R)-3-(3-(methyl-d3)-2-oxo-6-((6-(4-(trifluoromethyl)-1H-pyrazol-1-yl)pyridin-2-yl)amino)-2,3-dihydro-1H-imidazo[4,5-c]pyridin-1-yl)cyclopentyl)carbamate], the IC50 is over 1000 nM in test [1], at most 10 nM in test [2], at most 10 nM in test [3] and over 1000 nM in test [4].
On to `[2H]C([2H])([2H])n1c(=O)n([C@]2([2H])CC[C@@H](NC(=O)OC)C2)c2cc(Nc3cc(-c4cnccc4C(F)(F)F)c4nc(C)c(-c5cnn(C(F)F)c5)n4n3)ncc21` (single isomer, unassigned) [Example 97], for which the IC50 was over 1000 nM in test [1], at most 10 nM in test [2], at most 10 nM in test [3] and 500 to 1000 nM in test [4].
Regarding `COC(=O)Nc1cc(Nc2cc3c(cn2)n(C)c(=O)n3[C@H]2C[C@H](NC(=O)C3CC3)C2)cc(-c2cnn(C)c2)c1` [Example 24, Methyl (3-((1-((1r,3r)-3-(cyclopropanecarboxamido)cyclobutyl)-3-methyl-2-oxo-2,3-dihydro-1H-imidazo[4,5-c]pyridin-6-yl)amino)-5-(1-methyl-1H-pyrazol-4-yl)phenyl)carbamate], the IC50 is over 1000 nM in test [1], 10 to 100 nM in test [2], 10 to 100 nM in test [3] and over 1000 nM in test [4].
Regarding `[2H]C([2H])([2H])n1c(=O)n([C@@H]2CC[C@@H](NC(=O)OC)C2)c2cc(Nc3ccc4c(n3)n(-c3cnn(C(F)F)c3)c(=O)n4CC3(C#N)CC3)ncc21` [Example 114, Methyl ((1R,3R)-3-(6-((1-((1-cyanocyclopropyl)methyl)-3-(1-(difluoromethyl)-1H-pyrazol-4-yl)-2-oxo-2,3-dihydro-1H-imidazo[4,5-b]pyridin-5-yl)amino)-3-(methyl-d3)-2-oxo-2,3-dihydro-1H-imidazo[4,5-c]pyridin-1-yl)cyclopentyl)carbamate], the IC50 in test [1] was over 1000 nM; in test [2], at most 10 nM; in test [3], at most 10 nM; in test [4], over 1000 nM.
For the compound `[2H]C([2H])([2H])n1c(=O)n([C@@H]2CC[C@@H](NC(=O)OC)C2)c2cc(Nc3cc(C(=O)N4CCOCC4)c4cc(C)cc(C(F)(F)F)c4n3)ncc21` [Example 135, Methyl ((1R,3R)-3-(3-(methyl-d3)-6-((6-methyl-4-(morpholine-4-carbonyl)-8-(trifluoromethyl)quinolin-2-yl)amino)-2-oxo-2,3-dihydro-1H-imidazo[4,5-c]pyridin-1-yl)cyclopentyl)carbamate], the IC50 is over 1000 nM in test [1], at most 10 nM in test [2], at most 10 nM in test [3] and 500 to 1000 nM in test [4].
